# Experiments:
# Type in all cases: cell-based
# [1] = molecular target: proteins of U3A human fibrosarcoma cells (4462 proteins detected) (Homo sapiens, UniProt O00422); conditions: protein SAP18; soluble abundance after heat, U3A cells
# [2] = molecular target: proteins of U3A human fibrosarcoma cells (4462 proteins detected) (Homo sapiens, UniProt O14828); conditions: protein SCAMP3; soluble abundance after heat, U3A cells
# [3] = molecular target: proteins of U3A human fibrosarcoma cells (4462 proteins detected) (Homo sapiens, UniProt O75151); conditions: protein PHF2; soluble abundance after heat, U3A cells
# [4] = molecular target: proteins of U3A human fibrosarcoma cells (4462 proteins detected) (Homo sapiens, UniProt O95297); conditions: protein MPZL1; U3A, 10 μM, 2 h
# [5] = molecular target: proteins of U3A human fibrosarcoma cells (4462 proteins detected) (Homo sapiens, UniProt P0C2W1); conditions: protein FBXO45, U3A cells
# [6] = molecular target: proteins of U3A human fibrosarcoma cells (4462 proteins detected) (Homo sapiens, UniProt P23919); conditions: protein DTYMK; U3A cells
# [7] = molecular target: proteins of U3A human fibrosarcoma cells (4462 proteins detected) (Homo sapiens, UniProt P23921); conditions: protein RRM1; U3A, 10 μM, 2 h
# [8] = molecular target: proteins of U3A human fibrosarcoma cells (4462 proteins detected) (Homo sapiens, UniProt P27816); conditions: protein MAP4, U3A cells
# [9] = molecular target: proteins of U3A human fibrosarcoma cells (4462 proteins detected) (Homo sapiens, UniProt P34896); conditions: protein SHMT1, U3A cells
# [10] = molecular target: proteins of U3A human fibrosarcoma cells (4462 proteins detected) (Homo sapiens, UniProt P35249); conditions: protein RFC4; U3A, 10 μM, 2 h
# [11] = molecular target: proteins of U3A human fibrosarcoma cells (4462 proteins detected) (Homo sapiens, UniProt P37837); conditions: protein TALDO1, U3A cells
# [12] = molecular target: proteins of U3A human fibrosarcoma cells (4462 proteins detected) (Homo sapiens, UniProt P49588); conditions: protein AARS, U3A cells
# [13] = molecular target: proteins of U3A human fibrosarcoma cells (4462 proteins detected) (Homo sapiens, UniProt P50281); conditions: protein MMP14; U3A cells
# [14] = molecular target: proteins of U3A human fibrosarcoma cells (4462 proteins detected) (Homo sapiens, UniProt P50542); conditions: protein PEX5, U3A cells
# [15] = molecular target: proteins of U3A human fibrosarcoma cells (4462 proteins detected) (Homo sapiens, UniProt P63096); conditions: protein GNAI1; soluble abundance after heat, U3A cells
# [16] = molecular target: proteins of U3A human fibrosarcoma cells (4462 proteins detected) (Homo sapiens, UniProt Q14790); conditions: protein CASP8; U3A, 10 μM, 2 h
# [17] = molecular target: proteins of U3A human fibrosarcoma cells (4462 proteins detected) (Homo sapiens, UniProt Q16637); conditions: protein SMN1; SMN2; U3A, 10 μM, 2 h
# [18] = molecular target: proteins of U3A human fibrosarcoma cells (4462 proteins detected) (Homo sapiens, UniProt Q5T2R2); conditions: protein PDSS1; U3A cells
# [19] = molecular target: proteins of U3A human fibrosarcoma cells (4462 proteins detected) (Homo sapiens, UniProt Q5T5Y3); conditions: protein CAMSAP1; soluble abundance after heat, U3A cells
# [20] = molecular target: proteins of U3A human fibrosarcoma cells (4462 proteins detected) (Homo sapiens, UniProt Q6V1X1); conditions: protein DPP8; U3A cells
# [21] = molecular target: proteins of U3A human fibrosarcoma cells (4462 proteins detected) (Homo sapiens, UniProt Q8N4Q1); conditions: protein CHCHD4; soluble abundance after heat, U3A cells
# [22] = molecular target: proteins of U3A human fibrosarcoma cells (4462 proteins detected) (Homo sapiens, UniProt Q8WW01); conditions: protein TSEN15; U3A, 10 μM, 2 h
# [23] = molecular target: proteins of U3A human fibrosarcoma cells (4462 proteins detected) (Homo sapiens, UniProt Q96T60); conditions: protein PNKP; U3A, 10 μM, 2 h
# [24] = molecular target: proteins of U3A human fibrosarcoma cells (4462 proteins detected) (Homo sapiens, UniProt Q9BW91); conditions: protein NUDT9, U3A cells
# [25] = molecular target: proteins of U3A human fibrosarcoma cells (4462 proteins detected) (Homo sapiens, UniProt Q9C0E2); conditions: protein XPO4; soluble abundance after heat, U3A cells
# [26] = molecular target: proteins of U3A human fibrosarcoma cells (4462 proteins detected) (Homo sapiens, UniProt Q9GZT3); conditions: protein SLIRP, U3A cells
# [27] = molecular target: proteins of U3A human fibrosarcoma cells (4462 proteins detected) (Homo sapiens, UniProt Q9H900); conditions: protein ZWILCH; U3A cells
# [28] = molecular target: proteins of U3A human fibrosarcoma cells (4462 proteins detected) (Homo sapiens, UniProt Q9Y2H0); conditions: protein DLGAP4, U3A cells
# [29] = molecular target: proteins of U3A human fibrosarcoma cells (4462 proteins detected) (Homo sapiens, UniProt Q9Y6H1); conditions: protein CHCHD2; CHCHD2P9; U3A, 10 μM, 2 h
# Sequence of proteins of U3A human fibrosarcoma cells (4462 proteins detected) (Homo sapiens, UniProt Q9Y6H1) (Q9Y6H1 whole entry): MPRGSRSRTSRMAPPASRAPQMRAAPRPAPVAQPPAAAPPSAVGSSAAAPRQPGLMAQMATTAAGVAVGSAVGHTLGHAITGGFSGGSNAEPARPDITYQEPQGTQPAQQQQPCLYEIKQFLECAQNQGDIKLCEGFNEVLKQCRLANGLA
# Sequence of proteins of U3A human fibrosarcoma cells (4462 proteins detected) (Homo sapiens, UniProt Q9C0E2) (Q9C0E2 whole entry): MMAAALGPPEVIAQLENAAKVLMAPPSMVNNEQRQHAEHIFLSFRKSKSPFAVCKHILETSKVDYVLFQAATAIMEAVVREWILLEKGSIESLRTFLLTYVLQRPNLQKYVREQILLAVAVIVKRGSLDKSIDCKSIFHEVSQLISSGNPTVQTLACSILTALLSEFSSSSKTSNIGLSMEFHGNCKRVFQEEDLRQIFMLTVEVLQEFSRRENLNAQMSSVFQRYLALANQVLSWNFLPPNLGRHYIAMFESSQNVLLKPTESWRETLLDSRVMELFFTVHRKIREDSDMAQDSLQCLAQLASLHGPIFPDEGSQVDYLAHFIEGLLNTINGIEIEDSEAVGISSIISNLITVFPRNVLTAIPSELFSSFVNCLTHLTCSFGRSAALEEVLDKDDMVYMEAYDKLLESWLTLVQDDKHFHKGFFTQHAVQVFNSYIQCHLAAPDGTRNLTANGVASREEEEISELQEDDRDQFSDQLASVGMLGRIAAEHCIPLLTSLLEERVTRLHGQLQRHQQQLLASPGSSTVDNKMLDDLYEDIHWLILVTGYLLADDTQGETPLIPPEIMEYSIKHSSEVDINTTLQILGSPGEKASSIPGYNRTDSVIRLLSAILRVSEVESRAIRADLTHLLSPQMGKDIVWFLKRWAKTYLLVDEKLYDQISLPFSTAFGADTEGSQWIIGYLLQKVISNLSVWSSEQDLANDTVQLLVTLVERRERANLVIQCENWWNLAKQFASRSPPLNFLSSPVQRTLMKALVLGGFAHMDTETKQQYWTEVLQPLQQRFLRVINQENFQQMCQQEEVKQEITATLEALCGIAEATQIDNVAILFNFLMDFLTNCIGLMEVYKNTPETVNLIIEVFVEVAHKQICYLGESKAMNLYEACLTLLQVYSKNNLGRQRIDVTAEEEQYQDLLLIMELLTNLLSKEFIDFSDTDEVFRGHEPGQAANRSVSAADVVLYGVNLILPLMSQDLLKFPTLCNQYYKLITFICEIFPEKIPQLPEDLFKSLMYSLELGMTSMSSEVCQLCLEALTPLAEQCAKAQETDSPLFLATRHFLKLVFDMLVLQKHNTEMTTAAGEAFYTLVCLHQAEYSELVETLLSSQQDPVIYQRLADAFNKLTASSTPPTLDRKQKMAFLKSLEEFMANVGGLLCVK
# Sequence of proteins of U3A human fibrosarcoma cells (4462 proteins detected) (Homo sapiens, UniProt Q16637) (Q16637 whole entry): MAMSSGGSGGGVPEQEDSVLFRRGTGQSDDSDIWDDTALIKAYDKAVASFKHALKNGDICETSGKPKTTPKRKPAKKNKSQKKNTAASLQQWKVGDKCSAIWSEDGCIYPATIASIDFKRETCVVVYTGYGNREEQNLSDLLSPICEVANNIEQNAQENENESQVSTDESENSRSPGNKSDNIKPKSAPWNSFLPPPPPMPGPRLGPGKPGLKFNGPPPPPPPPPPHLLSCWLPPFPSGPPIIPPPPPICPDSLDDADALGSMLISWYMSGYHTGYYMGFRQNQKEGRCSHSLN
# Sequence of proteins of U3A human fibrosarcoma cells (4462 proteins detected) (Homo sapiens, UniProt P34896) (P34896 whole entry): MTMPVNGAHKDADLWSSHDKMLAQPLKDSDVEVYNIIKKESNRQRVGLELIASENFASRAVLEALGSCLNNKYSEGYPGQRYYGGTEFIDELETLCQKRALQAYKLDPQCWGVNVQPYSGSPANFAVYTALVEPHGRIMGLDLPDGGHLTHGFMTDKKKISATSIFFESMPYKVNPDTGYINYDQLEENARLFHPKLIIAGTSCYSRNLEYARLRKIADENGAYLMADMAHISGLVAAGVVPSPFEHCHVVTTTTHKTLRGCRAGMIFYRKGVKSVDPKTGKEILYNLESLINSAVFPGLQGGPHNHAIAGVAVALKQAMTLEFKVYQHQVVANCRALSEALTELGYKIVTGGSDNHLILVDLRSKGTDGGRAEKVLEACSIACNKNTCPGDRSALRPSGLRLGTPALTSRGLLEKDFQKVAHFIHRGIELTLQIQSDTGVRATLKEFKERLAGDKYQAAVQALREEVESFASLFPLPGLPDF
# Sequence of proteins of U3A human fibrosarcoma cells (4462 proteins detected) (Homo sapiens, UniProt O75151) (O75151 whole entry): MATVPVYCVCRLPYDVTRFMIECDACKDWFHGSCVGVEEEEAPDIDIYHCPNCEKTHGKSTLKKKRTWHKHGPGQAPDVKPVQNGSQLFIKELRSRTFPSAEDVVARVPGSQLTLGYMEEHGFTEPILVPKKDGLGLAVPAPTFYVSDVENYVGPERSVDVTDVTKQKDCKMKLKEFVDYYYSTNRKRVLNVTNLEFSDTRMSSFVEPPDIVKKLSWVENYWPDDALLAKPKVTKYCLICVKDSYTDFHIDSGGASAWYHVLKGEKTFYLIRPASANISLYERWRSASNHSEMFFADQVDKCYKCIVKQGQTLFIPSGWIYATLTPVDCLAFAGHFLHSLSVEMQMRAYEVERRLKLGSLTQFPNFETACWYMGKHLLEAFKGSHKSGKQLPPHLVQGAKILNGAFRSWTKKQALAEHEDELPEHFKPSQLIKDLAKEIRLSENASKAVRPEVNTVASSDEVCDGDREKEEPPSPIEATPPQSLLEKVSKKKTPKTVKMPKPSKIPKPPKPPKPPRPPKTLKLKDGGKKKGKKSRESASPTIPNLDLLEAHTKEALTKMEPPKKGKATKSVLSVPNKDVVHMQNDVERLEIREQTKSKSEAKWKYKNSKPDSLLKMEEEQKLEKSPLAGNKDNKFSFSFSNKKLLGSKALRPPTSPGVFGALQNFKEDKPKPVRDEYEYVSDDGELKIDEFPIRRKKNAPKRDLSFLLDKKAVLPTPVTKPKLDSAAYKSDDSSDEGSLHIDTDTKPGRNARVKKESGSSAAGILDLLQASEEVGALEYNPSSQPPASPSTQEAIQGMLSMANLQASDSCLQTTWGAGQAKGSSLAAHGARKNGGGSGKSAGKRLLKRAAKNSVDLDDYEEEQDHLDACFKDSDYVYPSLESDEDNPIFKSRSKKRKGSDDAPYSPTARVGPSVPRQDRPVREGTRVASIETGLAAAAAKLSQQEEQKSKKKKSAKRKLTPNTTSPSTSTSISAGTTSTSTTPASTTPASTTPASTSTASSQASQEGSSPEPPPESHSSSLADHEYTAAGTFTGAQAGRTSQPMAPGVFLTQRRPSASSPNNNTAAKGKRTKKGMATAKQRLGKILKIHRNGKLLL
# Sequence of proteins of U3A human fibrosarcoma cells (4462 proteins detected) (Homo sapiens, UniProt P49588) (P49588 whole entry): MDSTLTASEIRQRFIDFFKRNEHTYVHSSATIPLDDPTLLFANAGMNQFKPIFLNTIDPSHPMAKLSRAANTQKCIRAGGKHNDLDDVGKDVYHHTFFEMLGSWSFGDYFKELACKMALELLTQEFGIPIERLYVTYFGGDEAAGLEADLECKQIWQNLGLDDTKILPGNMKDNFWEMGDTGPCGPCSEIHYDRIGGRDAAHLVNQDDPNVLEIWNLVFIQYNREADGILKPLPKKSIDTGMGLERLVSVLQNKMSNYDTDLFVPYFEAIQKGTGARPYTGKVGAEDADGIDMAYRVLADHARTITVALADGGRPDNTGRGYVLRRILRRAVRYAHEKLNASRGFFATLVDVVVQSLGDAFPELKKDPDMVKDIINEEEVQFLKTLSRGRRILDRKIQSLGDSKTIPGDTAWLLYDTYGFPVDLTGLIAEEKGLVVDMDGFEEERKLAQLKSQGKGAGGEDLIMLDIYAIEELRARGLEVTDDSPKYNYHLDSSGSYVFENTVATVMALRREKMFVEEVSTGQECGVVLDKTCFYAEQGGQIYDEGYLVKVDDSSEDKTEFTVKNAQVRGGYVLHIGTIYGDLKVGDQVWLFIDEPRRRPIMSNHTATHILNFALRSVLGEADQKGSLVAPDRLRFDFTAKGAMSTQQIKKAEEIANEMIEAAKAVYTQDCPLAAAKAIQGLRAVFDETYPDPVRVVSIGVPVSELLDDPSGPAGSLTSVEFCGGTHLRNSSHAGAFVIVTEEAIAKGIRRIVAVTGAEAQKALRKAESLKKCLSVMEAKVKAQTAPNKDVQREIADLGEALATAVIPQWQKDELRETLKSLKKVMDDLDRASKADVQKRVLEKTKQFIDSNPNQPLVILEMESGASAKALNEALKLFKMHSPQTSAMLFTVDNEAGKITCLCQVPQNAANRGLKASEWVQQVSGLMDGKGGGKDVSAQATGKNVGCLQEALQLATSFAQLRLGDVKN
# Sequence of proteins of U3A human fibrosarcoma cells (4462 proteins detected) (Homo sapiens, UniProt P0C2W1) (P0C2W1 whole entry): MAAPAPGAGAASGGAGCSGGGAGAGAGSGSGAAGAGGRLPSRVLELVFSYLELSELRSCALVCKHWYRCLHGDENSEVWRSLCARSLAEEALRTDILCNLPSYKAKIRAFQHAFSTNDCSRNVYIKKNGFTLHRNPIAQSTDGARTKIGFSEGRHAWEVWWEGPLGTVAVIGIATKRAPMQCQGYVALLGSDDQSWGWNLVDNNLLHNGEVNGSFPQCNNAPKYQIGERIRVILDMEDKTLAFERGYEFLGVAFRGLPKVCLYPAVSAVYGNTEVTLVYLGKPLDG
# Sequence of proteins of U3A human fibrosarcoma cells (4462 proteins detected) (Homo sapiens, UniProt O00422) (O00422 whole entry): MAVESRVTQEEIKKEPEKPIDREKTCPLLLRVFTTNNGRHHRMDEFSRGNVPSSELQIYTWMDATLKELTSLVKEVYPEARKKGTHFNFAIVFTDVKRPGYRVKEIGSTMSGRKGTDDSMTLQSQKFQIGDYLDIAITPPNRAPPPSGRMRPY
# Sequence of proteins of U3A human fibrosarcoma cells (4462 proteins detected) (Homo sapiens, UniProt Q9BW91) (Q9BW91 47-350): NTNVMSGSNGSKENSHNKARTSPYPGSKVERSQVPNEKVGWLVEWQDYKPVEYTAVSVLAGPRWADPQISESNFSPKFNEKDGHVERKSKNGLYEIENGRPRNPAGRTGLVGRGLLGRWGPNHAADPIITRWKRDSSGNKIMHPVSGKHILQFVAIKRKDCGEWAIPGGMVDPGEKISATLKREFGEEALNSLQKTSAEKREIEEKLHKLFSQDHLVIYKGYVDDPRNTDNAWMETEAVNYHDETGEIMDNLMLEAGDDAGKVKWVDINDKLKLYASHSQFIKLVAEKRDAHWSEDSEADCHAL
smiles,measurement,setting,value
CCc1nc(N)nc(N)c1-c1ccc(Cl)cc1 [pyrimethamine],Log2 (PYR/DMSO),[1],0.14
same,Log2 (PYR/DMSO),[2],0.14
same,Log2 (PYR/DMSO),[3],0.14
same,"Log2 (PYR/DMSO), MPZL1",[4],0.25
same,Log2 (PYR/DMSO),[5],-0.04
same,Log2 (PYR/DMSO),[6],0.20
same,"Log2 (PYR/DMSO), RRM1",[7],0.24
same,Log2 (PYR/DMSO),[8],-0.05
same,Log2 (PYR/DMSO),[9],-0.05
same,"Log2 (PYR/DMSO), RFC4",[10],0.27
same,Log2 (PYR/DMSO),[11],-0.04
same,Log2 (PYR/DMSO),[12],-0.04
same,Log2 (PYR/DMSO),[13],0.19
same,Log2 (PYR/DMSO),[14],-0.03
same,Log2 (PYR/DMSO),[15],0.14
same,"Log2 (PYR/DMSO), CASP8",[16],0.34
same,"Log2 (PYR/DMSO), SMN1; SMN2",[17],-0.18
same,Log2 (PYR/DMSO),[18],0.20
same,Log2 (PYR/DMSO),[19],0.13
same,Log2 (PYR/DMSO),[20],0.16
same,Log2 (PYR/DMSO),[21],0.14
same,"Log2 (PYR/DMSO), TSEN15",[22],-0.15
same,"Log2 (PYR/DMSO), PNKP",[23],-0.22
same,Log2 (PYR/DMSO),[24],-0.04
same,Log2 (PYR/DMSO),[25],0.13
same,Log2 (PYR/DMSO),[26],-0.04
same,Log2 (PYR/DMSO),[27],0.22
same,Log2 (PYR/DMSO),[28],-0.04
same,"Log2 (PYR/DMSO), CHCHD2; CHCHD2P9",[29],0.36

# — paper PMC8800111 (The Journal of Biological Chemistry, 2021)
